{"source": "patent US20210347724A1", "about": "“METHOXYCHALCONE DERIVATIVES AND USES THEREOF” (The Board of Trustees of the Leland Stanford Junior …, priority 2020, published 2021)", "assay": "Pharmacokinetics study", "assay_type": "in vivo, Balb/c male mice", "conditions": "male, Balb/c, mouse, ip; 50 mg/kg i.p., plasma", "method": "Pharmacokinetics study. Mass quantification analysis was carried out using an Agilent 6490 iFunnel triple quadrupole (QQQ) mass spectrometer equipped with an Agilent 1290 infinity II UHPLC. ZORBAX C18 (Eclipse Plus, 2.1×50 mm, 1.8 μm particle size) was used as analytical UHPLC column. The mobile phase was composed of 50% mixture of water (with 0.1% formic acid and 4 mM ammonium formate) and acetonitrile (0.1% formic acid). The flow rate of mobile phase was set at 0.5 mL/min and column temperature was adjusted at 30° C. The electrospray ionization source was operated in positive ion mode. […] For SU086-CD3 the [M+H]^+ ions were monitored at m/z 347.1 as the precursor ion and a fragment at m/z 198.1 as the product ion. […] Blood was collected retro-orbitally at 5, 15, 30, 60, 120, 360 and 720 minutes after injection in three mice per time point. Blood plasma was separated via centrifugation at 7,000 RPM for 10 minutes. Each plasma sample was mixed with SU086-CD3 internal standard. 10 μL of plasma was mixed with 190 μL MS-grade acetonitrile and vortexed 30 seconds followed by 5 minutes incubation at RT. Mixture was centrifuged at 11,000 RPM for 15 min at 4° C. and supernatant was collected and further cleaned by re-centrifugation. Each protein-free plasma fraction (n=3, from three independent mouse) was resolved using the HPLC/MS MRM method as described above."}
{"smiles": "COc1cc(OC)c(C(=O)/C=C/c2cccc([N+](=O)[O-])c2)c(OC)c1", "note": "[SU086]", "values": [{"measurement": "half-life", "result": 1, "unit": "h"}]}
